The target of data set [1] is T1, Aldo-keto reductase family 1 member B1 (Homo sapiens, UniProt P15121). The data set can be described thus: Uncompetitive Inhibition of ALR2 (unknown origin) using fixed level of D,L-glyceraldehyde as substrate at 10 uM in presence of varying level of NADPH by Lineweaver-Burk plot analysis.
The target in data set [2] is Aldo-keto reductase family 1 member A1 (Rattus norvegicus, UniProt P51635). Nature of the data set: Inhibition of rat kidney ALR1 using DL-glyceraldehyde as substrate and NADPH preincubated for 5 mins followed by substrate addition and measured for 30 mins at 2 mins interval by spectrophotometry relative to control.
In data set [3] the test system is MIN6. The data set can be described thus: Effect on cell morphology in mouse MIN6 cells assessed as cell viability up to 400 uM incubated for 24 hrs. The format is cell-based. The following applies: min6, 24 h.
The nature of data set [4]: Antioxidant activity assessed as DPPH radical scavenging activity at 10 uM incubated for 30 mins under dark condition by spectrophotometry. The format is functional.
Data set [5] deals with T2, Aldo-keto reductase family 1 member B1 (Rattus norvegicus, UniProt P07943). The data set can be described thus: (§1) Inhibition of ALR2 in rat sciatic nerve assessed as reduction in sorbitol accumulation incubated for 3 hrs in presence of 28 mM glucose by gas chromatographic analysis.
In data set [6] the target is Aldo-keto reductase family 1 member B1 (Rattus norvegicus) (UniProt P07943). The description is as §1.
A short description of data set [7]: Antioxidant activity assessed as DPPH radical scavenging activity at 50 uM incubated for 30 mins under dark condition by spectrophotometry. The format is functional. On the technique in general: DPPH is a stable violet radical that fades when it is reduced.
The test system of data set [8] is MIN6. Nature of the data set: Cytotoxicity against mouse MIN6 cells assessed as reduction in cell viability up to 200 uM incubated for 24 hrs by MTT assay. The format is cell-based. The following applies: min6, 24 h.
In data set [9] the target is T1, Aldo-keto reductase family 1 member B1. The data set can be described thus: Non-competitive Inhibition of ALR2 (unknown origin) using fixed level of D,L-glyceraldehyde as substrate at 20 uM in presence of varying level of NADPH by Lineweaver-Burk plot analysis.
For the next data set, the system named is Mus musculus. Nature of the data set: Antihyperglycemic activity in alloxanized BALB/c mouse assessed as reduction in blood glucose level at 150 mg/kg, po measured after 8 hrs relative to control. The class given is functional.
Data set [10] in a line: Cytotoxicity against HEK293 cells assessed as reduction in cell viability at 100 uM incubated for 48 hrs by MTT assay relative to control. The format is cell-based. As to conditions: human, read-out: INH. (In general: Tetrazolium assays rely on reduction of a dye to a coloured formazan, in cell work by metabolically active cells.)
A short description of data set [11]: Antioxidant activity assessed as DPPH radical scavenging activity at 100 uM incubated for 30 mins under dark condition by spectrophotometry. The class given is functional.
The target of data set [12] is T1, Aldo-keto reductase family 1 member B1. Nature of the data set: Inhibition of human recombinant ALR2 expressed in Escherichia coli using DL-glyceraldehyde as substrate and NADPH preincubated for 5 mins followed by substrate addition and measured after 30 mins at 2 mins interval by spectrophotometry relative to control.
In data set [13] the test system is MIN6. Nature of the data set: Antidiabetic activity in mouse MIN6 cells after 83 passages assessed as increase in insulin secretion at 100 uM in presence of 25 mM glucose by ELISA relative to control. The format is functional. (In an ELISA, binding on a coated surface is turned into a signal by an enzyme label.)
Data set [14] is described as follows: Selectivity ratio of IC50 for rat kidney ALR1 IC50 to IC50 for human recombinant ALR2.
Data set [15] has as its target T1, Aldo-keto reductase family 1 member B1. Nature of the data set: Non-competitive Inhibition of ALR2 (unknown origin) using varying level of D,L-glyceraldehyde as substrate at 20 uM in presence of NADPH by Lineweaver-Burk plot analysis.
Data set [16] has the same target. The data set can be described thus: Uncompetitive Inhibition of ALR2 (unknown origin) using varying level of D,L-glyceraldehyde as substrate at 10 uM in presence of NADPH by Lineweaver-Burk plot analysis.
Data set [17] is described as follows: Cytotoxicity against HEK293 cells assessed as reduction in cell viability at 25 uM incubated for 48 hrs by MTT assay relative to control. The class given is cell-based. As to conditions: human, read-out: INH.
Data set [18] addresses T2, Aldo-keto reductase family 1 member B1. The data set can be described thus: (§2) Inhibition of ALR2 in rat erythrocytes assessed as reduction in sorbitol accumulation incubated for 3 hrs in presence of 28 mM glucose by gas chromatographic analysis relative to control. The format is cell-based.
Data set [19] deals with Aldo-keto reductase family 1 member B1 (Rattus norvegicus) (UniProt P07943). The description is as §2. The class given is cell-based.
Data set [20] deals with MIN6. The data set can be described thus: Antidiabetic activity in mouse MIN6 cells after 35 passages assessed as increase in insulin secretion at 100 uM in presence of 25 mM glucose by ELISA relative to control. The class given is functional.
A short description of data set [21]: Cytotoxicity against HEK293 cells assessed as reduction in cell viability at 50 uM incubated for 48 hrs by MTT assay relative to control. The following applies: human, read-out: INH. The format is cell-based.
Data set [22] has as its target T2, Aldo-keto reductase family 1 member B1. Nature of the data set: (§3) Inhibition of ALR2 in rat lens assessed as reduction in sorbitol accumulation incubated for 3 hrs in presence of 28 mM glucose by gas chromatographic analysis relative to control.
For data set [23], the target named is Aldo-keto reductase family 1 member B1 (Rattus norvegicus) (UniProt P07943). The data set is described as §3.
Data set [24] can be described thus: Cytotoxicity against mouse MIN6 cells assessed as cell viability at 400 uM incubated for 24 hrs by MTT assay. As to conditions: read-out: Activity. The class given is cell-based.
Data set [25] in a line: Cytotoxicity against HEK293 cells assessed as reduction in cell viability at 200 uM incubated for 48 hrs by MTT assay relative to control. The class given is cell-based. The following applies: human, read-out: INH.
Data set [26] deals with CC(C)c1ccc(S(=O)(=O)N2C(=O)NC(=O)C23CCCc2ccccc23)cc1. The data set can be described thus: Uncompetitive Inhibition of ALR2 (unknown origin) assessed as substrate Km using varying level of D,L-glyceraldehyde as substrate at 10 uM in presence of NADPH by Lineweaver-Burk plot analysis (reference value: 0.585 mM). As to conditions: Homo sapiens.

Calls of active or inactive are those of the source. The rule behind the calls is not given here.

Aldo-keto reductase family 1 member A1, sequence (P51635 whole entry, looked up): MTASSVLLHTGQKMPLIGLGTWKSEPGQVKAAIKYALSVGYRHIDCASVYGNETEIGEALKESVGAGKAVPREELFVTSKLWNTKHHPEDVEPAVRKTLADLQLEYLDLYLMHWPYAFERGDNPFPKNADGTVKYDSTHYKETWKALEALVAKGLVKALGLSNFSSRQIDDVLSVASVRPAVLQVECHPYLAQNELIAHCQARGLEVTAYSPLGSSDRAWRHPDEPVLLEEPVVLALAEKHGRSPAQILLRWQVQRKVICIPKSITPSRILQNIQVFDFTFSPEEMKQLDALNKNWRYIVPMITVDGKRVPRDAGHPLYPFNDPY

Broadly, the inhibition is the drop in the measured response relative to a control, in per cent. By IC50 is commonly meant the concentration at which inhibition is half-maximal. A word on the inhibition in vivo: it is the percentage by which the read-out fell short of the control. In the case of `CC(C)c1ccc(S(=O)(=O)N2C(=O)NC(=O)C23CCCc2ccccc23)cc1` (configuration not stated), the inhibition entry in data set [1], in data set [9], in [15] and in data set [16] was “Active” throughout. Further, the concentration for half-maximal inhibition (IC50) is 68200 nM in data set [2]; 720 nM in data set [5]; 560 nM in data set [12]; 850 nM in data set [18]; 830 nM in data set [22]. The Activity result was “Non-Toxic” in the data set on MIN6 [3], “Non-Toxic” with MIN6 [8], 192% in the data set with MIN6 [13] and 230% in the data set with MIN6 [20]. Besides, the inhibition is 72.7% in [4]; “Dose-dependent effect” in data set [6]; 75.2% in data set [7]; 85.3% in [11]; “Dose-dependent effect” in data set [19]; “Dose-dependent effect” in [23]. Moreover, the inhibition in vivo at 150 mg/kg with Mus musculus worked out at 50.3%. Moreover, the cytotoxicity at 48 h, 100 µM in data set [10] was 16.1%. Besides, the Ratio IC50 in [14] was found to be 73.7. In [17], the cytotoxicity at 48 h, 25 µM came to 14.2%. Besides, the cytotoxicity at 48 h, 50 µM in data set [21] amounted to 16.2%. Besides, the viability at 24 h, 400 µM in [24] is 81%. Also, the cytotoxicity at 48 h, 200 µM in data set [25] was determined as 22.3%.
Usually Km stands for the substrate concentration at which the rate is half of its maximum. With “Aldo-keto reductase family 1 member B1 (Homo sapiens) (from UniProt P15121)”, the Michaelis constant (Km) in [26] was 537 µM.

These data come from ChEMBL document CHEMBL4387705, “Synthesis of new arylsulfonylspiroimidazolidine-2',4'-diones and study of their effect on stimulation of insulin release from MIN6 cell line, inhibition of human aldose reductase, sorbitol accumulations in various tissues and oxidative stress” (Eur J Med Chem, 2019).
